Results reported in patent publication US4472424A, “Esters of 2-thenoylmercaptopropionylglycine with substituted hydroxybenzenes, process for their preparation and pharmaceutical compositions containing same” (Sigma-Tau Industrie Farmaceutiche Riunite S.p.A., priority 1981, dated 1984).

Assays:
[1] = Acute toxicity (LD50, Weil method), e.p. administration in mouse; conditions: in vivo, ip, Weil method N = 4 K = 4
Description: LD50 of the compounds of formula (I) assessed with the Weil method ("Tables for convenient calculation of median effective dose (LD50 or ED 50) and instructions in their use", Biometrics, 249-253, 1952), by e.p. administration in mouse is shown in Table 1.

bronchial secretion = test: Expectorant activity (bronchial secretion in anesthetized rabbits, Perry et al.); format: in vivo, rabbit; conditions: 20 to 40 mg
Method: The tests were carried out on male rabbits, weighing 2-3 Kg, anesthetized with ethyl urethane, by following the method disclosed by Perry et al. (J. Pharm. Exp. Ther. 73, 65, 1941).
Each cannula was connected to a feeding device which delivered a steady flow-rate of pre-heated air (36°-38° C.) at constant humidity (80%). At the lower end of each cannula, a graduated cylinder was fitted, wherein the bronchial secretion was collected. All of the animals breathed spontaneously and consequently they self-regulated the air intake suitable for normal respiration. After an hour following cannula insertion, the animals were administered orally (by stomach tube) the compounds of general formula (I) dissolved in distilled water at doses comprised between 20 and 40 mg. Each dose of drug was administered to 5 animals. The control animals (8) were given water only. The amount of secretion was determined after 1, 2 and 4 hours from administration.

[2] = Mucolytic activity in vitro (thromboelastograph, Morandini et al.); set-up: species or system human; conditions: 1 ml of a 10% solution of test compound
Method: The tests were carried out in vitro by using the method disclosed by Morandini et al. (Lotta contro 1a tubercolosi 47, n. 4, 1977). A thromboelastograph was used to follow the variations induced by the compounds of general formula (I) and acetylcysteine on the rheological properties of human sputum.

[3] = system: cough-inducing irritation; test: Antitussive activity (citric acid aerosol induced cough); format: in vivo, guinea pig; conditions: 200 mg/Kg orally, one hour before test; for Number of coughs after treatment: 10 minutes exposure to 10% citric acid aerosol; for % Inhibition of coughs: before vs. after treatment
Method: The cough-inducing irritation was studied in guinea pigs by exposing the experimental animals to an environment wherein a 10% citric acid solution was atomized by an aerosol device kept at a steady pressure with compressed air. The experimental animals were placed in a glass-walled chamber which was connected to an electrical recording apparatus suitable for counting coughs.
The period of exposure to the cough-inducing aerosol was 10 minutes. The experimental animals were subjected to a control test seven days before they were orally administered 200 mg/Kg of the compounds.

[4] = 1 hour after oral administration
[5] = 2 hours after oral administration
[6] = 4 hours after oral administration

Structure (SMILES)	LD50 [1] [mg/kg]	Percentage variations ± s.e. of bronchial secretion versus basal values (bronchial secretion; [4])	Percentage variations ± s.e. of bronchial secretion versus basal values (bronchial secretion; [5])	Percentage variations ± s.e. of bronchial secretion versus basal values (bronchial secretion; [6])	Percentage drop ± s.e. of the tracing versus maximum peak (mucolytic activity index) ([2]; dilution 1/30) [%]	Percentage drop ± s.e. of the tracing versus maximum peak (mucolytic activity index) ([2]; dilution 1/60) [%]	Number of coughs after treatment [3] [coughs]	% Inhibition of coughs [3] [%]
CCCOC(=O)c1ccc(OC(=O)CNC(=O)C(C)SC(=O)c2cccs2)cc1 (centres unmarked) [(1), propyl p-(2-thenoylmercaptopropionylglyciloxy) benzoate]	1580	+0.9 ± 0.05%	+2.1 ± 0.01%	+3.8 ± 0.06%	75	60	39	37
CC(=O)Nc1ccc(OC(=O)CNC(=O)C(C)SC(=O)c2cccs2)cc1 (centres unmarked) [(2), p-(2-thenoylmercaptopropionylglyciloxy) acetamido benzene]	1930	+0.8 ± 0.03%	+1.2 ± 0.04%	+2.5 ± 0.07%	86	65	30	46
COC(=O)c1ccccc1OC(=O)CNC(=O)C(C)SC(=O)c1cccs1 (centres unmarked) [(3), methyl o-(2-thenoylmercaptopropionylglyciloxy) benzoate]	1780	+0.3 ± 0.05%	+0.9 ± 0.05%	+1.4 ± 0.08%	85	65	31	49
CCOC(=O)c1ccccc1OC(=O)CNC(=O)C(C)SC(=O)c1cccs1 (centres unmarked) [(4), ethyl o-(2-thenoylmercaptopropionylglyciloxy) benzoate]	2150	+0.8 ± 0.03%	+1.9 ± 0.06%	+3.0 ± 0.04%	82	60	30	52
CCCOC(=O)c1ccccc1OC(=O)CNC(=O)C(C)SC(=O)c1cccs1 (centres unmarked) [(5), propyl o-(2-thenoylmercaptopropionylglyciloxy) benzoate]	2080	+0.9 ± 0.06%	+1.7 ± 0.05%	+3.2 ± 0.06%	78	57	28	49
CCCCOC(=O)c1ccccc1OC(=O)CNC(=O)C(C)SC(=O)c1cccs1 (centres unmarked) [(6), butyl o-(2-thenoylmercaptopropionylglyciloxy) benzoate]	1800	+0.5 ± 0.04%	+1.0 ± 0.06%	+1.9 ± 0.04%	75	55	25	49
CC(=O)N[C@@H](CS)C(=O)O [Acetylcysteine, acetylcysteine, reference compound]					75	22		
